From patent publication EP1591123A1, “USES OF NARINGENIN, NARINGIN AND SALTS THEREOF AS EXPECTORANTS IN THE TREATMENT OF COUGH, AND COMPOSITIONS THEREOF” (Su, Wei-wei, priority 2003, dated 2004)
“Also recorded” adds a separate entry of the source. Where a name gives a salt, the structure may show the parent alone.

Tests used:
[1] = tested on: NIH little mice; experiment: Toxicological experiment, single oral dose, 10 days observation (Examples 32-35); format: in vivo; settings: for dosage without toxic reaction as multiple of the normal dosage: oral dosage tested relative to normal dose for human beings; for changes in little mice's weight / toxic reaction / deaths of little mice / pathological inspection of each apparatus: oral; for changes in little mice's weight / toxic reaction: ten days; for deaths of little mice / pathological inspection of each apparatus: tenth day
Experimental: (§1) With temperature in the range of 24±1 °C and humidity in the range of 65±5 %,choose 20 NIH little mice which are 7-8 years old ,healthy and clean, male and female for each half ,their weights are between 20 and 22 gram.. Antisepsis the feed and water, before and in the layoff period of the test, all the mice should be feed under the normal feeding condition.
(§2) Dissolve Naringin in 0.5 % Tween80, the concentration is 300mg/ml,this liquor is given to little mice by oral access, the dosage is 0.2ml/20g weight of little mice. After administration ,they are observed for 1,4,8,12 hours, and then once per 12 hours. Observe the deaths of little mice ,and record the changes in little mice's weight as well as other symptoms. In the tenth day, kill little mice by breaking their necks, and take each apparatus for pathological inspection.
as §1, with “of 25±1” for “of 24±1”, “of 75±5” for “of 65±5”, “[…], healthy” for “years old ,healthy”, “half , their” for “half ,their”, “between 18.5” for “between 20”, “and 20.5” for “and 22”
as §2, with “Naringin sodium salt medicine” for “Naringin”, “in brine,” for “in 0.5 % Tween80,”, “is 300mg/ml, this” for “is 300mg/ml,this”, “little mice, and” for “little mice ,and”, “mice's weights” for “mice's weight”, “pathological inspection.. […]” for “pathological inspection.”

[2] = tested on: NIH mice; experiment: Antitussive test of Naringin, spraying with concentrated ammonia liquor (Example 28); format: in vivo; settings: for R Value: EDT50 of the treatment / EDT50 of the control x 100%; for EDT50: mice, intra-gastrointestinal, ammonia spray 1 hour after dosing
Source text: 1.Animals: As the stock animals, totally 130 NIH mice, male, each weighed 18.2~21.7g within ordinary standard. Weigh and number each mice accurately first, then pick out the 120 healthy ones who weighed in range from 18.5~21.0g. Ranked in weigh, they were divided into 8 groups in random with each 15. Set up reference groups of negative and positive, and sample groups of high-dose, mid-dose, low-dose Naringin and sodium Naringinate.
• 1) Blank control group: physiological saline, 0.9% NaCl; • 2) Positive control group: 30 mg dextromethorphan hydrobromide was weighed into a 20ml volumetric flask, and physiological saline was accurately added to the volume to obtain the solution for positive control at concentration of 5mg/ml° • 3) Group of low-dose sample Naringin: Proper amount of Naringin was weighed into a suitable volumetric flask, and physiological saline was added to the volume to obtain the solution at concentration of 0.5mg/ml. • 4) Group of mid-dose sample Naringin: Proper amount of Naringin was weighed into a suitable volumetric flask, and physiological saline was added to the volume to obtain the solution at concentration of 1.5mg/ml. • 5) Group of high-dose sample Naringin: Proper amount of Naringin was weighed into a suitable volumetric flask, and physiological saline was added to the volume to obtain the solution at concentration of 4.5mg/ml. • 6) Group of low-dose sample sodium Naringinate: Proper amount of sodium Naringin was weighed into a suitable volumetric flask, and physiological saline was added to the volume to obtain the solution at concentration of 0.5mg/ml. • 7) Group of mid-dose sample sodium Naringinate: Proper amount of sodium Naringin was weighed into a suitable volumetric flask, and physiological saline was added to the volume to obtain the solution at concentration of 1.5mg/ml. • 8) Group of high-dose sample sodium Naringinate: Proper amount of sodium Naringin was weighed into a suitable volumetric flask, and physiological saline was added to the volume to obtain the solution at concentration of4.5mg/ml.
One hour after intra-gastrointestinal administering for the mice, spray with concentrated ammonia liquor for certain intervals. Immediately the spraying was over, put away the mice outside and observe the tussive action. Mark down the times for which they coughed within 1 minute. Only when they coughed, which was characteristic of compression of abdomen or chest with their mouths open, and making coughing noise, for more than 3 times within a minute, tussive action could be admitted.
Calculate the median effective dose(EDT50) with sequential trials. Work out the amount of R with the formula below. If R is greater than 130%, it means the drug will be effective on antitussive action. If R is greater than 150%, it means the drug will be remarkably effective on antitussive action. The formula is shown as below: R =(EDT50 of the treatmnet)/(EDT50 of the control)× 100% [formula] EDT50=log-1c/n(n for amount of animals, c for summation of rx, r for amount of animals in each group, x for logarithm of the dose (time for spraying) )

[3] = 0.2 ml/20g of 0.5 mg/ml, listed as sodium naringinate
[4] = 0.2 ml/20g of 1.5 mg/ml, listed as sodium naringinate
[5] = 0.2 ml/20g of 4.5 mg/ml, listed as sodium naringinate

Structure (SMILES) | dosage without toxic reaction as multiple of the normal dosage [1] | changes in little mice's weight ([1]; 6.0g/kg) | toxic reaction ([1]; 6.0g/kg) | deaths of little mice ([1]; 6.0g/kg) | pathological inspection of each apparatus ([1]; 6.0g/kg) | changes in little mice's weight ([1]; 3.0g/kg) | deaths of little mice ([1]; 3.0g/kg) | pathological inspection of each apparatus ([1]; 3.0g/kg) | Effect of relieving cough ([2]; 0.2 ml/20g of 0.5 mg/ml) | Effect of relieving cough ([2]; 0.2 ml/20g of 1.5 mg/ml) | Effect of relieving cough ([2]; 0.2 ml/20g of 4.5 mg/ml) | also measured
O=C1C[C@@H](c2ccc(O)cc2)Oc2cc(O)cc(O)c21 [sodium salt of Naringenin] | 460 | weights of little mice are not found lightening | toxic reaction can't be found | all the little mice are still alive | pathological changes have not been found | – | – | – | – | – | – | –
C[C@@H]1O[C@@H](O[C@H]2[C@H](Oc3cc(O)c4c(c3)O[C@H](c3ccc(O)cc3)CC4=O)O[C@H](CO)[C@@H](O)[C@@H]2O)[C@H](O)[C@H](O)[C@H]1O [sodium salt of Naringin] | 230 | – | – | – | – | weights of little mice are not found lightening | all little mice are still alive | pathological changes have not been found | effective (If R is greater than 130%, it means the drug will be effective on antitussive action) | remarkably effective (If R is greater than 150%, it means the drug will be remarkably effective on antitussive action) | remarkably effective (If R is greater than 150%, it means the drug will be remarkably effective on antitussive action) | toxic reaction ([1]; 3.0g/kg, listed as Naringin sodium salt): toxic reaction can't be found; R Value [2, 3]: 142.35%; R Value [2, 4]: 155.84%; R Value [2, 5]: 163.94%; EDT50 [2, 3]: 57.68 s; EDT50 [2, 4]: 63.15 s; EDT50 [2, 5]: 66.43 s
O=C1CC(c2ccc(O)cc2)Oc2cc(O)cc(O)c21 (stereo not drawn) [Naringenin, 4', 5, 7 -trihydroxyflavanone] | 460 | weights of little mice are not found lightening | toxic reaction can't be found; also recorded: hasn't toxic reaction | all little mice are still alive | pathological changes have not been found | – | – | – | – | – | – | –
C[C@@H]1O[C@@H](O[C@H]2[C@H](Oc3cc(O)c4c(c3)O[C@H](c3ccc(O)cc3)CC4=O)O[C@H](CO)[C@@H](O)[C@@H]2O)[C@H](O)[C@H](O)[C@H]1O [Naringin, 4', 5', 7-trihydroxyflavanone-7-rhamnoneglucoside] | 230 | – | – | – | – | weights of little mice are not found lightening | all little mice are still alive | pathological changes have not been found | effective (If R is greater than 130%, it means the drug will be effective on antitussive action) | remarkably effective (If R is greater than 150%, it means the drug will be remarkably effective on antitussive action) | remarkably effective (If R is greater than 150%, it means the drug will be remarkably effective on antitussive action) | toxic reaction ([1]; 3.0g/kg): toxic reaction can't be found; also recorded: haven't toxic reaction; R Value ([2]; 0.2 ml/20g of 0.5 mg/ml): 139.21%; R Value ([2]; 0.2 ml/20g of 1.5 mg/ml): 151.36%; R Value ([2]; 0.2 ml/20g of 4.5 mg/ml): 161.72%; resistance time against cough ([2]; compared with dextromethorphan hydrobromide): remarkably longer; EDT50 ([2]; 0.2 ml/20g of 0.5 mg/ml): 56.41 s; EDT50 ([2]; 0.2 ml/20g of 1.5 mg/ml): 61.33 s; EDT50 ([2]; 0.2 ml/20g of 4.5 mg/ml): 65.53 s
